Measured values taken from BigSolDB 2.1.

Oc1ccccc1/C=N/CC/N=C/c1ccccc1O
solubility (mole fraction)
Conditions | in dichloromethane | in diethyl ether | in ethanol | in methanol | in n-hexane | in toluene
268.15 K | 0.0352 | 0.00119 | – | – | – | –
273.15 K | 0.0369 | 0.00136 | – | – | – | –
278.15 K | 0.0408 | 0.00165 | 0.00026 | 0.0003 | – | 0.00947
283.15 K | 0.0469 | 0.00193 | 0.00035 | 0.00036 | – | 0.0115
288.15 K | 0.0533 | 0.00232 | 0.00048 | 0.00049 | 0.00084 | 0.014
293.15 K | 0.0605 | 0.00281 | 0.00069 | 0.00064 | 0.00095 | 0.0164
298.15 K | 0.0696 | 0.0035 | 0.0009 | 0.00081 | 0.00112 | 0.0198
303.15 K | 0.0775 | 0.00455 | 0.00112 | 0.00099 | 0.00127 | 0.0256
308.15 K | – | – | 0.00147 | 0.00125 | 0.00143 | 0.0305
313.15 K | – | – | 0.00199 | 0.00155 | 0.00161 | 0.0379
318.15 K | – | – | 0.00252 | 0.00185 | 0.00186 | 0.047
